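Protocol summary: plate cells (96-well), add compound at 5 concentrations, incubate 48 h, interpolate endpoints linearly. TGI denotes the concentration required for complete inhibition of growth.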
Columns and labels:
Assay in all cases: DTP human tumour cell line panel, 48 h
CCRF-CEM leukemia = tested on: CCRF-CEM leukemia
PC-3 prostate = tested on: PC-3 prostate
HCT-15 colon = tested on: HCT-15 colon
HS 578T breast = tested on: HS 578T breast
OVCAR-8 ovarian = tested on: OVCAR-8 ovarian
SNB-19 CNS = tested on: SNB-19 CNS
HOP-92 NSCLC = tested on: HOP-92 NSCLC
TK-10 renal = tested on: TK-10 renal
SK-MEL-2 melanoma = tested on: SK-MEL-2 melanoma
HCT-116 colon = tested on: HCT-116 colon
T-47D breast = tested on: T-47D breast
MOLT-4 leukemia = tested on: MOLT-4 leukemia
K-562 leukemia = tested on: K-562 leukemia
NCI-H23 lung = tested on: NCI-H23 lung
DU-145 prostate = tested on: DU-145 prostate
MDA-N = tested on: MDA-N
MDA-MB-435 = tested on: MDA-MB-435
UACC-62 melanoma = tested on: UACC-62 melanoma
786-0 renal = tested on: 786-0 renal
ACHN renal = tested on: ACHN renal
NCI-H522 lung = tested on: NCI-H522 lung
CAKI-1 renal = tested on: CAKI-1 renal
NCI-H226 lung = tested on: NCI-H226 lung
NCI/ADR-RES ovarian = tested on: NCI/ADR-RES ovarian
SF-295 CNS = tested on: SF-295 CNS
MCF7 breast = tested on: MCF7 breast
OVCAR-5 ovarian = tested on: OVCAR-5 ovarian
UACC-257 melanoma = tested on: UACC-257 melanoma
SK-MEL-28 melanoma = tested on: SK-MEL-28 melanoma
UO-31 renal = tested on: UO-31 renal
HT29 colon = tested on: HT29 colon
KM12 colon = tested on: KM12 colon
SF-539 CNS = tested on: SF-539 CNS
SNB-75 CNS = tested on: SNB-75 CNS
M14 melanoma = tested on: M14 melanoma
MALME-3M melanoma = tested on: MALME-3M melanoma
SW-620 colon = tested on: SW-620 colon
OVCAR-3 ovarian = tested on: OVCAR-3 ovarian
HOP-62 NSCLC = tested on: HOP-62 NSCLC
SF-268 CNS = tested on: SF-268 CNS
A549 NSCLC = tested on: A549 NSCLC
IGROV1 ovarian = tested on: IGROV1 ovarian
LOX IMVI melanoma = tested on: LOX IMVI melanoma
A498 renal = tested on: A498 renal
SN12C renal = tested on: SN12C renal
EKVX NSCLC = tested on: EKVX NSCLC
SK-OV-3 ovarian = tested on: SK-OV-3 ovarian
U251 CNS = tested on: U251 CNS
NCI-H460 lung = tested on: NCI-H460 lung
OVCAR-4 ovarian = tested on: OVCAR-4 ovarian
BT-549 breast = tested on: BT-549 breast
COLO 205 colon = tested on: COLO 205 colon
HL-60(TB) leukemia = tested on: HL-60(TB) leukemia
MDA-MB-231 breast = tested on: MDA-MB-231 breast
RPMI-8226 leukemia = tested on: RPMI-8226 leukemia
RXF 393 renal = tested on: RXF 393 renal
HCC-2998 colon = tested on: HCC-2998 colon
SK-MEL-5 melanoma = tested on: SK-MEL-5 melanoma

For `C=C1C(=O)C2=C[C@H]1C[C@H](O)C(=O)[C@]1(C)CCCC(C)(C)[C@H]1C[C@H]2O`, the TGI (CCRF-CEM leukemia) was 0.326 µM, the TGI (PC-3 prostate) was 3.62 µM and the TGI (HCT-15 colon) was 1.96 µM. The TGI (HS 578T breast) was 8.61 µM, the TGI (OVCAR-8 ovarian) was 5.93 µM and the TGI (SNB-19 CNS) was 29.8 µM. The TGI (HOP-92 NSCLC) was 3.01 µM, the TGI (TK-10 renal) was 2.08 µM and the TGI (SK-MEL-2 melanoma) was 20.9 µM. It also gave a TGI (HCT-116 colon) of 3 µM, a TGI (T-47D breast) of 2.36 µM and a TGI (MOLT-4 leukemia) of 10.3 µM. The TGI (K-562 leukemia) was 0.824 µM, the TGI (NCI-H23 lung) was 3.15 µM and the TGI (DU-145 prostate) was 4.04 µM. The TGI (MDA-N) was 4.06 µM, the TGI (MDA-MB-435) was 10.2 µM and the TGI (UACC-62 melanoma) was 3.05 µM. For the same compound, the TGI (786-0 renal) was 2.14 µM, the TGI (ACHN renal) was 1.65 µM and the TGI (NCI-H522 lung) was 1.41 µM. The TGI (CAKI-1 renal) was 2.85 µM, the TGI (NCI-H226 lung) was 23 µM and the TGI (NCI/ADR-RES ovarian) was 3.16 µM. The TGI (SF-295 CNS) was 20.5 µM, the TGI (MCF7 breast) was 1.63 µM and the TGI (OVCAR-5 ovarian) was 3.72 µM. For the same compound, the TGI (UACC-257 melanoma) was 4.27 µM, the TGI (SK-MEL-28 melanoma) was 3.44 µM and the TGI (UO-31 renal) was 5.27 µM. For the same compound, the TGI (HT29 colon) was 2.85 µM, the TGI (KM12 colon) was 5.78 µM and the TGI (SF-539 CNS) was 2.6 µM. It also gave a TGI (SNB-75 CNS) of 17.4 µM, a TGI (M14 melanoma) of 2.85 µM and a TGI (MALME-3M melanoma) of 2.05 µM. It also gave a TGI (SW-620 colon) of 1.95 µM, a TGI (OVCAR-3 ovarian) of 4 µM and a TGI (HOP-62 NSCLC) of 25.5 µM. For the same compound, the TGI (SF-268 CNS) was 13.9 µM, the TGI (A549 NSCLC) was 2.81 µM and the TGI (IGROV1 ovarian) was 12.8 µM. For the same compound, the TGI (LOX IMVI melanoma) was 2.14 µM, the TGI (A498 renal) was 3.73 µM and the TGI (SN12C renal) was 4.07 µM. The TGI (EKVX NSCLC) was 3.31 µM, the TGI (SK-OV-3 ovarian) was 25.4 µM and the TGI (U251 CNS) was 2.6 µM. The TGI (NCI-H460 lung) was 8.77 µM, the TGI (OVCAR-4 ovarian) was 19.2 µM and the TGI (BT-549 breast) was 5.66 µM. It also gave a TGI (COLO 205 colon) of 1.85 µM, a TGI (HL-60(TB) leukemia) of 1.03 µM and a TGI (MDA-MB-231 breast) of 2.64 µM. For the same compound, the TGI (RPMI-8226 leukemia) was 1.02 µM and the TGI (RXF 393 renal) was 1.3 µM.

`CO/C=C(/C(=O)OC)c1ccccc1Oc1c(F)c(F)c(F)c(F)c1F` gave a TGI (CCRF-CEM leukemia) of 98.5 µM, a TGI (PC-3 prostate) greater than 100 µM and a TGI (HCT-15 colon) greater than 100 µM. For the same compound, the TGI (HS 578T breast) was 86 µM, the TGI (OVCAR-8 ovarian) was greater than 100 µM and the TGI (SNB-19 CNS) was greater than 100 µM. For the same compound, the TGI (HOP-92 NSCLC) was 69.2 µM, the TGI (TK-10 renal) was 88.2 µM and the TGI (SK-MEL-2 melanoma) was 58.1 µM. For the same compound, the TGI (HCT-116 colon) was 56 µM, the TGI (T-47D breast) was 73.1 µM and the TGI (MOLT-4 leukemia) was 30.4 µM. The TGI (K-562 leukemia) was greater than 100 µM, the TGI (NCI-H23 lung) was greater than 100 µM and the TGI (DU-145 prostate) was greater than 100 µM. The TGI (MDA-N) was greater than 100 µM, the TGI (MDA-MB-435) was 77.8 µM and the TGI (UACC-62 melanoma) was 68.5 µM. It also gave a TGI (786-0 renal) greater than 100 µM, a TGI (ACHN renal) greater than 100 µM and a TGI (CAKI-1 renal) of 66.5 µM. The TGI (NCI-H226 lung) was greater than 100 µM, the TGI (NCI/ADR-RES ovarian) was greater than 100 µM and the TGI (SF-295 CNS) was greater than 100 µM. For the same compound, the TGI (MCF7 breast) was greater than 100 µM, the TGI (OVCAR-5 ovarian) was greater than 100 µM and the TGI (UACC-257 melanoma) was 82.7 µM. The TGI (SK-MEL-28 melanoma) was greater than 100 µM, the TGI (UO-31 renal) was greater than 100 µM and the TGI (HT29 colon) was greater than 100 µM. It also gave a TGI (KM12 colon) greater than 100 µM, a TGI (SF-539 CNS) greater than 100 µM and a TGI (HCC-2998 colon) greater than 100 µM. The TGI (SK-MEL-5 melanoma) was 40.8 µM, the TGI (M14 melanoma) was greater than 100 µM and the TGI (OVCAR-3 ovarian) was 62.4 µM. For the same compound, the TGI (HOP-62 NSCLC) was greater than 100 µM, the TGI (SF-268 CNS) was greater than 100 µM and the TGI (A549 NSCLC) was greater than 100 µM. For the same compound, the TGI (IGROV1 ovarian) was 97.7 µM, the TGI (LOX IMVI melanoma) was greater than 100 µM and the TGI (A498 renal) was 92.9 µM. For the same compound, the TGI (SN12C renal) was greater than 100 µM, the TGI (EKVX NSCLC) was greater than 100 µM and the TGI (SK-OV-3 ovarian) was greater than 100 µM. For the same compound, the TGI (U251 CNS) was greater than 100 µM, the TGI (NCI-H460 lung) was greater than 100 µM and the TGI (OVCAR-4 ovarian) was 85.4 µM. For the same compound, the TGI (BT-549 breast) was greater than 100 µM, the TGI (COLO 205 colon) was 35.3 µM and the TGI (HL-60(TB) leukemia) was 5.72 µM. The TGI (MDA-MB-231 breast) was greater than 100 µM, the TGI (RPMI-8226 leukemia) was 41.2 µM and the TGI (RXF 393 renal) was 63.8 µM.

With `COc1ccccc1C1(c2c(OC(C)C)c(=O)c2=O)SCCCS1` the TGI (CCRF-CEM leukemia) was greater than 100 µM, the TGI (PC-3 prostate) was greater than 100 µM and the TGI (HCT-15 colon) was greater than 100 µM. For the same compound, the TGI (HS 578T breast) was greater than 100 µM, the TGI (OVCAR-8 ovarian) was greater than 100 µM and the TGI (SNB-19 CNS) was greater than 100 µM. The TGI (HOP-92 NSCLC) was greater than 100 µM, the TGI (TK-10 renal) was greater than 100 µM and the TGI (SK-MEL-2 melanoma) was greater than 100 µM. For the same compound, the TGI (HCT-116 colon) was greater than 100 µM, the TGI (T-47D breast) was greater than 100 µM and the TGI (MOLT-4 leukemia) was greater than 100 µM. For the same compound, the TGI (NCI-H23 lung) was greater than 100 µM, the TGI (DU-145 prostate) was greater than 100 µM and the TGI (MDA-N) was greater than 100 µM. For the same compound, the TGI (MDA-MB-435) was greater than 100 µM, the TGI (UACC-62 melanoma) was greater than 100 µM and the TGI (786-0 renal) was greater than 100 µM. It also gave a TGI (ACHN renal) greater than 100 µM, a TGI (NCI-H522 lung) greater than 100 µM and a TGI (CAKI-1 renal) greater than 100 µM. For the same compound, the TGI (NCI-H226 lung) was greater than 100 µM, the TGI (NCI/ADR-RES ovarian) was greater than 100 µM and the TGI (SF-295 CNS) was greater than 100 µM. It also gave a TGI (MCF7 breast) greater than 100 µM, a TGI (OVCAR-5 ovarian) greater than 100 µM and a TGI (UACC-257 melanoma) greater than 100 µM. The TGI (SK-MEL-28 melanoma) was greater than 100 µM, the TGI (UO-31 renal) was greater than 100 µM and the TGI (HT29 colon) was greater than 100 µM. The TGI (KM12 colon) was greater than 100 µM, the TGI (SF-539 CNS) was greater than 100 µM and the TGI (SNB-75 CNS) was greater than 100 µM. The TGI (SK-MEL-5 melanoma) was greater than 100 µM, the TGI (M14 melanoma) was greater than 100 µM and the TGI (SW-620 colon) was greater than 100 µM. The TGI (OVCAR-3 ovarian) was greater than 100 µM, the TGI (HOP-62 NSCLC) was greater than 100 µM and the TGI (SF-268 CNS) was greater than 100 µM. The TGI (A549 NSCLC) was greater than 100 µM, the TGI (IGROV1 ovarian) was greater than 100 µM and the TGI (LOX IMVI melanoma) was greater than 100 µM. For the same compound, the TGI (A498 renal) was greater than 100 µM, the TGI (SN12C renal) was greater than 100 µM and the TGI (EKVX NSCLC) was greater than 100 µM. It also gave a TGI (SK-OV-3 ovarian) greater than 100 µM, a TGI (U251 CNS) greater than 100 µM and a TGI (NCI-H460 lung) greater than 100 µM. The TGI (OVCAR-4 ovarian) was greater than 100 µM, the TGI (BT-549 breast) was greater than 100 µM and the TGI (COLO 205 colon) was greater than 100 µM. The TGI (HL-60(TB) leukemia) was greater than 100 µM, the TGI (MDA-MB-231 breast) was greater than 100 µM and the TGI (RXF 393 renal) was greater than 100 µM.
